Results published in patent US20120232044A1, “METHODS AND COMPOSITIONS FOR TREATING HYPERURICEMIA AND METABOLIC DISORDERS ASSOCIATED WITH HYPERURICEMIA” (TWi Biotechnology, Inc., priority 2011, published 2012).

What was measured:
[1] = tested on: type 2 diabetes patients with micro-albuminuria, hyperuricemia sub-group (baseline blood uric acid higher than 7.0 mg/dL); assay: DIA-DM01 trial, hyperuricemia sub-group: blood uric acid level under diacerein 50 mg bid versus placebo; assay type: in vivo, human; details: for patients whose blood uric acid levels achieved normal range: normal: females below 6.0 mg/dL, males below 7.0 mg/dL
From the text: Objectives: To evaluate the efficacy and safety of diacerein for the treatment of albuminuria in patients with type 2 diabetes mellitus.
Primary Endpoints: To compare the change from baseline in the urinary albumin to creatinine ratio (UACR) after 24 weeks of diacerein or placebo administrated.
Subjects: Male or female type 2 diabetes patients (BMI≦35 kg/m^2) with micro-albuminuria.
Procedure: This was a Phase II, prospective, randomized, double-blind, and parallel comparison study comparing diacerein 50 mg bid (twice a day) versus placebo to albuminuria in patients with type 2 diabetes mellitus.
At the screening visit, patients who fulfilled the enrollment criteria and gave written informed consent entered a three to ten days screening period. During the screening period, the baseline UACR was evaluated. If the baseline UACR was greater than 50 mg/g, the patients were randomized into the […] treatment period in the 1:1 ratio (diacerein versus placebo). All participants were required to be taking stable dose of angiotensin-converting-enzyme (ACE) inhibitors, angiotensin receptor blockers (ARBs), or both, for three months prior to the study. These agents were continued throughout the trial. The hypoglycemic medications were maintained during the study period. The class and/or dosage were changed if clinically indicated. An introduction of a new treatment or any regimen change to the pre-existing co-medication that had hypoglycemic or hyperglycemic potential was allowed during the study with the consent of the clinical investigator.
The hyperuricemia sub-group was assembled from among the subjects with baseline blood uric acid level higher than 7.0 mg/dL. The results of blood uric acid level in the two treatment groups were analyzed by paired t-test of within-group changes.
Subjects (n=76) with diabetic microalbinuria were randomized in a 1:1 ratio to receive twice-daily diacerein 50 mg (n=38), or placebo (n=38) for 24 weeks. The baseline blood levels of uric acid in nine subjects of the diacerein group (2 females and 7 males) and twelve subjects of the placebo group (2 females and 10 males) in the hyperuricemia subgroup were above 7.0 mg/dL, and the mean levels were 8.06 mg/dL and 8.38 mg/dL respectively.

[2] = tested on: subjects with chronic gout and hyperuricemia; assay: Case study of diacerein and allopurinol combination therapy in subjects with chronic gout and hyperuricemia; assay type: in vivo, human; details: for blood level of uric acid: visit 1 before diacerein
Description: In DIA-DM01 trial described in Example 1, two subjects enrolled in the diacerein group had chronic gout history and were currently treating with allopurinol.
Case 1: A person with history of chronic gout and hyperuricemia was treated with allopurinol since Jan. 2, 2009. Before they were enrolled in the diacerein trial, their medical treatment was unsatisfactory, and their blood level of uric acid was 8.3 mg/dL in visit 1 (Jul. 8, 2009).
Case 2: A person with history of chronic gout and hyperuricemia was treated with allopurinol since Aug. 27, 2009. Before they were enrolled in the diacerein trial, their medical treatment was also unsatisfactory, and their blood level of uric acid was 9.5 mg/dL in visit 1 (Dec. 18, 2009).

SMILES | patients whose blood uric acid levels achieved normal range ([1]; 24-week treatment with diacerein) | Uric Acid, Mean ([1]; Baseline (before treatment), diacerein group, N=9) [mg/dL] | Uric Acid, Mean ([1]; Baseline (before treatment), diacerein group, N=9, listed as Diacerein) [mg/dL] | patients whose blood uric acid levels achieved normal range ([1]; after 12 weeks of diacerein) | blood uric acid levels maintained during the treatment period ([1]; diacerein 50 mg bid, below the upper end of the normal range) | Uric Acid, Mean ([1]; week 12, diacerein 50 mg bid, N=9) [mg/dL] | Uric Acid, Change from baseline ([1]; week 12, diacerein 50 mg bid, N=9, p=0.0037 vs. baseline) [mg/dL] | Uric Acid, Mean ([1]; week 24, diacerein 50 mg bid, N=7) [mg/dL] | Uric Acid, Change from baseline ([1]; week 24, diacerein 50 mg bid, N=7, p=0.0060 vs. baseline) [mg/dL] | blood uric acid level ([2]; Case 1, after 24 weeks of diacerein add-on to allopurinol) [mg/dL] | acute flares during the treatment period ([2]; Case 1, diacerein add-on to allopurinol, 24 weeks) | blood uric acid level ([2]; Case 2, after 12 weeks of diacerein add-on to allopurinol) [mg/dL] | blood level of uric acid ([2]; Case 1, on allopurinol alone) [mg/dL] | blood level of uric acid ([2]; Case 2, on allopurinol alone) [mg/dL]
CC(=O)Oc1cccc2c1C(=O)c1c(OC(C)=O)cc(C(=O)O)cc1C2=O [diacerein, 4,5-bis(acetyloxy)-9,10-dioxo-2-anthracene carboxylic acid] | four of the remaining seven patients | 8.06 | 8.0667 | six of the nine patients | below 7.0 mg/dL | 6.6667 | -1.40 | 6.5571 | -1.34 | 7.5 | No acute flares were observed | 6.4 |  | 
Oc1ncnc2[nH]ncc12 [allopurinol] |  |  |  |  |  |  |  |  |  |  |  |  | 8.3 | 9.5
